Results: patent US5364615A (priority 1992, dated 1994)
Where “and” joins values, the source holds several entries; their conditions need not be identical. Identical values can stand only once. Entries after “also recorded” stand apart in the source; their conditions may differ. Like-named read-outs stand apart in the source and are kept apart here.

Assays:
[1] = Aerosol particle size of pentamidine; type: physicochemical; settings: for particle size (MMAD): Respirgard II
Source text: A compressed oxygen (5-7 L/min at 345 kPa, 50 psi) powered nebulizer produces the aerosol and one-way valves provide for entrainment of room air in patients whose minute ventilation is high, act as a baffle to decrease particle size, and direct expired air to a filter which removes the remaining particles of drug thereby preventing environmental contamination.
Particles were sized with a 7 stage Mercer cascade impactor (Intox Products, Albuquerque, N. Mex.). The gas supply was 6 L/min, the sample stream was not dried, and the impactor flow rates were 0.5 L/min. […] Results from the average of three determinations at each location were expressed as mass median aerodynamic diameter ±geometric standard deviation (MMAD±GSD). Raabe, J Aerosol Sci (1971) Z:289-303.

[2] = tested on: Pneumocystis carinii; assay: Randomized clinical trial of PCP prophylaxis (Example 8); type: in vivo, human
[3] = tested on: Pneumocystis carinii; assay: Treatment of Pneumocystis carinii pneumonia, inhaled vs intravenous pentamidine (Example 1); type: in vivo, human
[4] = tested on: Pneumocystis carinii; settings: human, in vivo
Source text: The initial diagnosis of P. carinii pneumonia was based on finding the organism in induced sputum or bronchoalveolar lavage specimens.
Treatment was as described in Example 3.
Chest radiographs and arterial blood gas tensions were obtained as clinically indicated.

[5] = tested on: Pneumocystis carinii; type: in vivo, human
[6] = inhaled pentamidine; cited from earlier work
[7] = in vivo
[8] = in vivo; remark: listed apart in the source
[9] = intravenous 4 mg/Kg, 18-24 h, per patient, 4 mg/kg
[10] = distal to the nebulizer (point A)
[11] = all strata, eligible, PCP within 60 days, 30 mg
[12] = all strata, eligible, PCP within 60 days, 150 mg
[13] = all strata, eligible, PCP within 60 days, 300 mg, p .004 (30 vs 300 mg)
[14] = all strata, eligible, confirmed PCP within 60 days, 30 mg
[15] = all strata, eligible, confirmed PCP within 60 days, 150 mg
[16] = all strata, eligible, confirmed PCP within 60 days, 300 mg, p .0008 (30 vs 300 mg)
[17] = all strata, intention to treat, all PCP, 30 mg
[18] = all strata, intention to treat, all PCP, 150 mg
[19] = all strata, intention to treat, all PCP, 300 mg, p .02 (30 vs 300 mg)
[20] = prior PCP strata, eligible, PCP within 60 days, 30 mg
[21] = prior PCP strata, eligible, PCP within 60 days, 150 mg
[22] = prior PCP strata, eligible, PCP within 60 days, 300 mg, p .006 (30 vs 300 mg)
[23] = prior PCP strata, eligible, confirmed PCP within 60 days, 30 mg
[24] = prior PCP strata, eligible, confirmed PCP within 60 days, 150 mg
[25] = prior PCP strata, eligible, confirmed PCP within 60 days, 300 mg, p .002 (30 vs 300 mg)
[26] = prior PCP strata, intention to treat, all PCP, 30 mg
[27] = prior PCP strata, intention to treat, all PCP, 150 mg
[28] = prior PCP strata, intention to treat, all PCP, 300 mg, p .02 (30 vs 300 mg)
[29] = 13 patients treated successfully

N=C(N)c1ccc(OCCCCCOc2ccc(C(=N)N)cc2)cc1 [pentamidine, p,p'-(pentamethylenedioxy)dibenzamidine]
BAL sediment concentration, aerosol vs intravenous (18-24 h): 10-100 fold
mean BAL supernatant (aerosol) vs BAL sediment (intravenous), factor (18-24 h): more than 2
BAL sediment concentration, Mean ± SEM (aerosol 300 mg, 18-24 h): 705 ± 242 ng/mL
BAL supernatant concentration, Mean ± SEM (aerosol 300 mg, 18-24 h): 23.2 ± 7.75 ng/mL
systemic absorption (after aerosol administration): Little or no systemic absorption was detectable
BAL sediment concentration, Mean ± SEM (intravenous 4 mg/Kg, 18-24 h): 9.34 ± 1.74 ng/mL
BAL supernatant concentration, Mean ± SEM (intravenous 4 mg/Kg, 18-24 h): 2.64 ± 0.73 ng/mL
BAL sediment concentration [9]: 12.8 ng/mL and 6.89 ng/mL and 8.35 ng/mL
BAL supernatant concentration [9]: 1.48 ng/mL and 2.44 ng/mL and 4.0 ng/mL
response to standard therapy (patients infected with P. carinii, either intravenous pentamidine or TMP-SMX): All patients infected with P. carinii responded to standard therapy
particle size (MMAD ± GSD) ([1]; Example 3, nebulizer of Example 2, 600 mg in 6 mL): 1.42±1.88 μm
mass of particles larger than 4 μm ([1]; at the mouthpiece (point B)): less than 5%
particle size (MMAD) ([1]; at the mouthpiece (point B)): 1.42 μm
mass of particles larger than 4 μm [1, 10]: greater than 20%
particle size (MMAD) [1, 10]: 2.38 μm
pentamidine distal to the exhalation filter ([1]; point C): No pentamidine was found distal to the exhalation filter
Completed without Endpoint ([2]; 30 mg every two weeks): 26
Died, Due to PCP ([2]; 30 mg every two weeks): 5
Died, Not due to PCP ([2]; 30 mg every two weeks): 51
Extrapulmonary Pneumocystis ([2]; 30 mg every two weeks): 0
PCP, Confirmed ([2]; 30 mg every two weeks): 32
PCP, Unconfirmed ([2]; 30 mg every two weeks): 9
Completed without Endpoint ([2]; 150 mg every two weeks): 38
Died, Due to PCP ([2]; 150 mg every two weeks): 6
Died, Not due to PCP ([2]; 150 mg every two weeks): 47
Extrapulmonary Pneumocystis ([2]; 150 mg every two weeks): 1
PCP, Confirmed ([2]; 150 mg every two weeks): 28
PCP, Unconfirmed ([2]; 150 mg every two weeks): 4
Completed without Endpoint ([2]; 300 mg every four weeks): 42
Died, Due to PCP ([2]; 300 mg every four weeks): 5
Died, Not due to PCP ([2]; 300 mg every four weeks): 46
Extrapulmonary Pneumocystis ([2]; 300 mg every four weeks): 0
PCP, Confirmed ([2]; 300 mg every four weeks): 16
PCP, Unconfirmed ([2]; 300 mg every four weeks): 12
case fatality rate from first acute PCP episode ([2]; 16 of 101 PCP episodes): 15.8%
share of all deaths due to PCP ([2]; 19 of 160): 11.9%
all cause mortality between treatment arms ([2]; 30, 150, 300 mg): did not significantly differ between the three treatment arms
time to PCP occurrence, dose comparison ([2]; Kaplan-Meier, 300 mg every 4 weeks vs 30 mg every 2 weeks, 150 mg vs 30 mg): 300 mg of aerosolized pentamidine given every 4 weeks was consistently superior to 30 mg of aerosolized pentamidine given every 2 weeks and The 150 mg arm was superior to the 30 mg arm but less so than the 300 mg arm
all cause mortality ([2]; Kaposi's sarcoma stratum): 36%
deaths due to PCP ([2]; all doses): Nineteen deaths occurred due to PCP
deaths ([2]; all doses, 408 participants): 160
PCP episodes ([2]; all doses, KS stratum): 8
PCP episodes ([2]; all doses, Other HIV stratum): 15
PCP episodes ([2]; all doses, total and prior PCP stratum): One hundred-one PCP episodes; also recorded: Seventy-eight occurred in the prior PCP stratum
Relative Hazard of PCP: Cox regression ([2]; all strata, confirmed PCP on study drug, 30 vs 300): 3.9 and 3.86
Relative Hazard of PCP: Cox regression ([2]; all strata, confirmed PCP on study drug, 30 vs. 150): 1.7 and 1.71
No PCP (participants) [2, 11]: 89
PCP (participants) [2, 11]: 28
No PCP (participants) [2, 12]: 102
PCP (participants) [2, 12]: 18
No PCP (participants) [2, 13]: 113
PCP (participants) [2, 13]: 16
No PCP (participants) [2, 14]: 95
PCP (participants) [2, 14]: 22
No PCP (participants) [2, 15]: 104
PCP (participants) [2, 15]: 16
No PCP (participants) [2, 16]: 121
PCP (participants) [2, 16]: 8
No PCP (participants) [2, 17]: 94
PCP (participants) [2, 17]: 41
No PCP (participants) [2, 18]: 102
PCP (participants) [2, 18]: 32
No PCP (participants) [2, 19]: 111
PCP (participants) [2, 19]: 28
Relative Hazard of PCP: Cox regression ([2]; all strata, intention to treat, 30 vs 300): 1.78
Relative Hazard of PCP: Cox regression ([2]; all strata, intention to treat, 30 vs. 150): 1.21
developed PCP ([2]; initial CD4 counts greater than 200, no prior PCP, two of 39): 5.1%
developed PCP ([2]; initial CD4 counts less than 200, no prior PCP, 12 of 89): 13%
all cause mortality ([2]; other HIV stratum): 13%
Relative Hazard of PCP: Cox regression ([2]; prior PCP strata, confirmed PCP on study drug, 30 vs 300): 4.57
Relative Hazard of PCP: Cox regression ([2]; prior PCP strata, confirmed PCP on study drug, 30 vs. 150): 2.10
No PCP (participants) [2, 20]: 42
PCP (participants) [2, 20]: 25
No PCP (participants) [2, 21]: 51
PCP (participants) [2, 21]: 16
No PCP (participants) [2, 22]: 60
PCP (participants) [2, 22]: 14
No PCP (participants) [2, 23]: 47
PCP (participants) [2, 23]: 20
No PCP (participants) [2, 24]: 53
PCP (participants) [2, 24]: 14
No PCP (participants) [2, 25]: 66
PCP (participants) [2, 25]: 8
No PCP (participants) [2, 26]: 46
PCP (participants) [2, 26]: 33
No PCP (participants) [2, 27]: 54
PCP (participants) [2, 27]: 24
No PCP (participants) [2, 28]: 59
PCP (participants) [2, 28]: 21
Relative Hazard of PCP: Cox regression ([2]; prior PCP strata, intention to treat, 30 vs 300): 2.11
Relative Hazard of PCP: Cox regression ([2]; prior PCP strata, intention to treat, 30 vs. 150): 1.40
all cause mortality ([2]; prior PCP stratum): 53%
hazard of PCP by start of therapy ([2]; start within 3 months of prior PCP vs later, Cox model): less than half the hazard of PCP
time to PCP relapse, median ([2]; starting prophylaxis within 3 months of prior PCP): 240 days
time to PCP relapse, median ([2]; starting with a longer interval since prior episode): 143 days
Outcome of therapy ([3]; inhalation 4 mg/Kg, UltraVent, per patient): failed; also recorded: success
satisfactory response rate ([3]; inhalation therapy, evaluable patients): 90%
treatment failures ([3]; inhalation, 4 of 13 patients): 31%
responded satisfactorily ([3]; inhalation, 9 of 13 patients): 69%
Time to discharge ([3]; inhalation, all patients in group, based on 9 successful patients): 15 ± 1 days
satisfactory outcome (patients) ([3]; inhalation, of ten evaluated patients): nine had a satisfactory outcome
died in the hospital ([3]; inhalation, one patient): 7.7%
Time to discharge ([3]; inhalation, per patient (patient 9 died on day 9)): 27 days and 17 days and 16 days and 15 days and 14 days and 13 days
satisfactory outcome (patients) ([3]; intravenous): Eight of nine iv-treated patients exhibited a satisfactory outcome
Outcome of therapy ([3]; intravenous 3 mg/Kg, per patient, 3 mg/kg): success; also recorded: failed
Time to discharge ([3]; intravenous, based on 8 successful patients): 14 ± 2 days
responded satisfactorily ([3]; intravenous, eight of nine): 89%
relapse ([3]; intravenous, four patients followed five to six months): no reported relapses
Time to discharge ([3]; intravenous, per patient): 14 days and 12 days and 18 days and 13 days and 16 days
clinical response (hypoxia, fever, dyspnea, radiographs) [4]: none of the patients were hypoxic or febrile, all had improvement in dyspnea, and all had current or subsequent chest radiographs indicating roentrographic improvement of infiltrates
completion of therapy [4]: All patients successfully completed therapy
relapse ([5]; 13 patients followed 2-4 months): No patient presented evidence of relapse
arterial oxygenation and vital capacity [5, 29]: Eleven of the 13 patients showed improvements of their arterial oxygenation and vital capacity
dyspnea, respiratory rate and fever [5, 29]: marked reduction in dyspnea, respiratory rate and fever
radiographic improvement [5, 29]: 4 had radiographic improvement beginning by the second week of therapy and Five patients showed worsened radiographic infiltrates at one week with subsequent improvement and remaining 4 patients had worsened radiographic infiltrates or no improvement for the first two weeks of therapy, then improvement
overall efficacy rate ([5]; 95% confidence limits, 58% to 98%): 87%
Pre therapy DLCO ([5]; baseline): 64.9 percent predicted
Pre therapy PaO2 ([5]; baseline): 67.9 torr
Pre therapy Vital Capacity ([5]; baseline): 50.8 percent predicted
subjective and objective improvement ([5]; human, in vivo): Thirteen of 15 patients had subjective and objective improvement
time of clinical improvement ([5]; human, in vivo): Ten patients had clinical improvement in the first week of therapy, and 3 patients during the second week of therapy
Successful Treatment W/ Change, % ([5]; n = 15): 93%
Successful Treatment w/o Change, % ([5]; n = 15): 86%
treatment failure / death ([5]; one patient with concomitant tuberculosis therapy, changed to TMP-SMX on day 7): died of progressive respiratory failure
Post therapy DLCO ([5]; post therapy): 61.7 percent predicted
Post therapy PaO2 ([5]; post therapy): 80.1 torr
Post therapy Vital Capacity ([5]; post therapy): 61.8 percent predicted
microscopic airway changes [6]: no microscopic airway changes have been noted
adverse systemic reactions (renal, liver, hematologic, hypoglycemia, hypotension) [7]: No adverse systemic reactions
coughing with larger particles [7]: most subjects began coughing within a few breaths
hypotension or dysglycemia [8]: no episodes of hypotension or dysglycemia
inhalation-associated cough [8]: Eight of thirteen patients (four of whom also experienced bronchospasm) had mild inhalation-associated cough
reversible bronchospasm [8]: occurred in five patients
